Data published in ChEMBL document CHEMBL1142400, “An updated steroid benchmark set and its application in the discovery of novel nanomolar ligands of sex hormone-binding globulin” (J Med Chem, 2008).

Biological target: T1, Sex hormone-binding globulin (Homo sapiens, UniProt P04278)
T1 sequence (P04278 whole entry): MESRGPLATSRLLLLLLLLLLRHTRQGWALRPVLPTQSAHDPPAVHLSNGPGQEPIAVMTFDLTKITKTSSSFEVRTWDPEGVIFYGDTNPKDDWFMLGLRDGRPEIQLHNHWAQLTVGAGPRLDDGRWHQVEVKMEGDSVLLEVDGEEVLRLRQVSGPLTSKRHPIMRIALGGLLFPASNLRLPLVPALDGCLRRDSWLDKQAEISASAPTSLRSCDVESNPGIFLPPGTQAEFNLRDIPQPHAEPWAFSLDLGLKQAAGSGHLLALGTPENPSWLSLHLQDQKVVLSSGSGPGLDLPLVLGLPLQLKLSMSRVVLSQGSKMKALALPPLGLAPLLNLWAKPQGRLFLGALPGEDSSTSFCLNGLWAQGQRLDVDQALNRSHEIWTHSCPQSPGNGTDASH
Assay: Displacement of [3H]5alpha dihydrotestosterone from human sex hormone binding globulin

Compound	Kd [nM]
C[C@]12CC[C@H]3[C@@H](CCC4CC(=O)CC[C@@H]43)[C@@H]1CC[C@@H]2O (stereo partly specified)	4.37
COc1cc2c(cc1O)CC[C@@H]1[C@@H]2CC[C@]2(C)[C@@H](O)CC[C@@H]12 [2-METHOXYESTRADIOL]	0.832
CC1=C2CC[C@H]3[C@@H]4CC[C@H](O)[C@@]4(C)CC[C@@H]3[C@@]2(C)CCC1=O	0.49
C#C[C@]1(O)CC[C@H]2[C@@H]3CCC4=CC(=O)CC[C@]4(C)[C@H]3CC[C@@]21C [ETHISTERONE]	1.66
C[C@@H]1C[C@H]2C[C@@H](O)CC[C@]2(C)[C@H]2CC[C@]3(C)[C@@H](O)CC[C@H]3[C@H]12	1
C[C@]12CCC(=O)C=C1CC[C@@H]1[C@@H]2[C@@H](O)C[C@]2(C=O)[C@@H](C(=O)CO)CC[C@@H]12 [ALDOSTERONE]	4790
C[C@]12CCC(=O)C=C1CC[C@@H]1[C@@H]2C(=O)C[C@@]2(C)[C@H]1CC[C@]2(O)C(=O)CO [CORTISONE]	372
C[C@]12CC[C@@H](O)C[C@@H]1CC[C@@H]1[C@@H]2CC[C@]2(C)C(=O)CC[C@@H]12 [ANDROSTERONE]	70.8
C[C@]12CC[C@H]3[C@@H](CCC4=CC(=O)CC[C@@]43C)[C@@H]1C[C@@H](O)[C@@H]2O	12
C[C@@H]1C=C2CC(O)CC[C@]2(C)[C@H]2CC[C@@]3(C)[C@@H](CC[C@]3(C)O)[C@H]12 (stereo partly specified)	363
C[C@]12CCC3=C4CCC(=O)C=C4C=C[C@H]3[C@@H]1CC[C@@H]2O	1150
